Numbers after ± are expanded uncertainties.
Experiment: molar heat capacity at constant pressure
Conditions: 101.33 kPa, Liquid, Small sample (50 mg) DSC

| Structure (SMILES) | molar heat capacity at constant pressure (298.2 K) [J/K/mol] | molar heat capacity at constant pressure (323.2 K) [J/K/mol] |
| --- | --- | --- |
| CCCC[N+]1(C)CCCC1.N#C[B-](C#N)(C#N)C#N [1-butyl-1-methylpyrrolidinium tetracyanoborate] | 524 ± 53 | 554 ± 56 |
| CCCC[n+]1cccc(C)c1.N#C[B-](C#N)(C#N)C#N [1-butyl-3-methylpyridinium tetracyanoborate] | 495 ± 50 | 524 ± 53 |

Reference: the NIST ThermoML archive (doi:10.1016/j.jct.2011.05.022)
